The values that follow come from ChEMBL document CHEMBL1201862, “PubChem BioAssay data set” (2004).

What all share (experiment): DTP human tumour cell line panel, 48 h
Assay [1] deals with SF-295.
The subject of assay [2] is MOLT-4.
For assay [3], the system named is HOP-62.
Assay [4] relates to NCI/ADR-RES.
Assay [5] concerns SK-MEL-5.
Assay [6] concerns SNB-75.
The test system of assay [7] is ACHN.
The subject of assay [8] is SK-MEL-28.
In assay [9] the test system is RPMI-8226.
Assay [10] deals with OVCAR-4.
Assay [11] relates to IGROV-1.
The subject of assay [12] is EKVX.
The test system of assay [13] is Hs-578T.
Assay [14] has as its system A498.
The test system of assay [15] is SR.
The test system of assay [16] is U-251.
In assay [17] the test system is RXF 393.
For assay [18], the system named is K562.
Assay [19] concerns UO-31.
In assay [20] the test system is MDA-MB-435.

Broadly, the GI50 is the concentration giving 50% growth inhibition.

SMILES strings stand for the structures.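 Five compound concentrations were applied to cells in 96-well plates for 48 hours; endpoints were derived by simple linear interpolation of the resulting dose-response curve. Abbreviation: GI50, concentration required for 50% inhibition of growth.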 Activity calls are given as the source filed them. No stated cut-off is given here; in the data, active = GI50 up to about 1.1 µM and inactive = higher. Bounds are passed on as bounds.

Consider `O=C1NC2C(=CC(O)C(O)C2O)c2cc3c(cc21)OCO3` (stereo not given), for which the GI50 in assay [1] is 0.582 µM (active); in assay [2] it was 0.109 µM (active); in [3] it was 0.463 µM (active); in assay [4], 0.621 µM (active); in [5] it was 0.164 µM (active); in [6], 0.568 µM (active). For the same molecule, the GI50 is 0.144 µM (active) in assay [7]; 0.417 µM (active) in assay [8]; 0.414 µM (active) in [9]; 0.338 µM (active) in [10]; 0.494 µM (active) in assay [11]; 0.412 µM (active) in assay [12]. Besides, the GI50 in [13] is 0.0794 µM (active); in assay [14], 0.759 µM (active); in assay [15], 0.109 µM (active); in assay [16], 0.218 µM (active); in [17], 0.154 µM (active); in assay [18], 0.34 µM (active). The GI50 in [19] was 0.564 µM (active); in assay [20], 0.0951 µM (active).
Consider `CC(C)[Si]1(C(C)C)OCC2OC(n3c(C(=O)c4ccccc4)cc(=O)[nH]c3=O)CC2O[Si](C(C)C)(C(C)C)O1` (stereo not given), for which the GI50 in assay [1] is 3.78 µM (inactive); in [2] it was 1.88 µM (inactive); in assay [3], 7.03 µM (inactive); in assay [4], 10.2 µM (inactive); in assay [5], 4.37 µM (inactive); in assay [6], 3.02 µM (inactive). Further, the GI50 in assay [7] is 3.16 µM (inactive); in [8], 3.72 µM (inactive); in assay [9], 2.85 µM (inactive); in [10], 2.93 µM (inactive); in assay [11], 3.28 µM (inactive); in assay [12], 3.71 µM (inactive). The GI50 in assay [13] is 2.26 µM (inactive); in assay [14] it was 11.4 µM (inactive); in assay [15], 2.61 µM (inactive); in assay [16] it was 3.15 µM (inactive); in assay [17], 2.54 µM (inactive); in [18], 3.05 µM (inactive). In addition, the figures for the GI50 in assay [19] and in assay [20] were 2.47 µM (inactive) and 3.1 µM (inactive), respectively.
As for `O=C(NCc1ccccc1Cl)c1c(O)c2ccccc2[nH]c1=O`, the GI50 in [1] was 33.4 µM (inactive); in assay [2], > 100 µM (inactive); in assay [3] it was 19.1 µM (inactive); in assay [4], 12.2 µM (inactive); in assay [5], 46.8 µM (inactive); in assay [6], 21.6 µM (inactive). The GI50 is > 10 µM (inactive) in [7]; > 100 µM (inactive) in assay [8]; 57.8 µM (inactive) in assay [9]; 8.53 µM (inactive) in assay [10]; 24.6 µM (inactive) in assay [11]; > 100 µM (inactive) in assay [12]. The GI50 is 25.9 µM (inactive) in [13]; 15.9 µM (inactive) in assay [14]; > 100 µM (inactive) in assay [15]; 18.7 µM (inactive) in assay [16]; 21.2 µM (inactive) in assay [17]; > 100 µM (inactive) in [18]. The GI50 in assay [19] is 13.6 µM (inactive); in [20], 36 µM (inactive).
With `CC(=O)OCC1OC(Nc2ccc3nc(C)n(-c4ccccc4)c(=O)c3c2)C(OC(C)=O)C(OC(C)=O)C1OC(C)=O` (stereo not given), the GI50 in assay [1], in assay [2], in assay [3], in [4], in [5] and in assay [6] was > 50 µM (inactive) in each case. Besides, the GI50 in assay [7] is > 50 µM (inactive); in assay [8], > 50 µM (inactive); in [9], 5.61 µM (inactive); in assay [10], > 50 µM (inactive); in assay [11], > 50 µM (inactive); in [12], > 50 µM (inactive). For the same molecule, the GI50 was > 50 µM (inactive) in [13]; > 50 µM (inactive) in [14]; 24.1 µM (inactive) in assay [15]; > 50 µM (inactive) in [16]; > 50 µM (inactive) in [17]; 32.1 µM (inactive) in assay [18]. For the same molecule, the GI50 in [19] and in [20] was > 50 µM (inactive) in each case.
On to `COCCCNC(=O)C1=C(C)NC(C)=C(C(=O)NCCCOC)C1`, for which the GI50 in [1] is > 100 µM (inactive); in [2], > 100 µM (inactive); in [3] it was > 100 µM (inactive); in [4], > 100 µM (inactive); in assay [5] it was > 100 µM (inactive); in assay [6], 21 µM (inactive). Further, the GI50 in [7] is > 100 µM (inactive); in [8], > 100 µM (inactive); in assay [9], > 100 µM (inactive); in assay [10] it was > 100 µM (inactive); in [11] it was 11.3 µM (inactive); in assay [12] it was 18.6 µM (inactive). Also, the GI50 was 86.5 µM (inactive) in assay [13]; > 100 µM (inactive) in assay [14]; > 100 µM (inactive) in assay [15]; > 100 µM (inactive) in assay [16]; > 100 µM (inactive) in [17]; 46 µM (inactive) in [18]. Also, the GI50 is 71.4 µM (inactive) in assay [19] and > 100 µM (inactive) in assay [20].
Take `Cc1ccc2c(c1)CC1(Cc3c(C)cccc3C1=O)C2=O` (stereo not given): the GI50 in assay [1] was 69.8 µM (inactive); in [2], > 100 µM (inactive); in assay [3], 28.5 µM (inactive); in assay [4] it was > 100 µM (inactive); in assay [5] it was > 100 µM (inactive); in [6] it was 36.7 µM (inactive). Further, the GI50 in assay [7], in assay [8], in assay [9], in assay [10], in [11] and in assay [12] was > 100 µM (inactive) in each case. For the same molecule, the GI50 in assay [13] was 22.6 µM (inactive); in [14], > 100 µM (inactive); in [15], > 100 µM (inactive); in assay [16], 87.5 µM (inactive); in [17], > 100 µM (inactive); in assay [18] it was > 100 µM (inactive). The GI50 in [19] and in assay [20] was > 100 µM (inactive) each time.
With `Cc1n[nH]c(=O)n1/N=C\CC/C=N\n1c(C)n[nH]c1=O`, the GI50 in [1], in [2], in assay [3], in assay [4], in [5] and in [6] was > 100 µM (inactive) each time. Further, the GI50 in assay [7], in assay [8], in assay [9], in [10], in assay [11] and in assay [12] was > 100 µM (inactive) in each case. Besides, the GI50 in assay [13], in assay [14], in assay [15], in assay [16], in [17] and in [18] was > 100 µM (inactive) in each case. Besides, the GI50 in assay [19] and in [20] was > 100 µM (inactive) in each case.
With `C[As](C)SCC(NC(=O)CCC(N)C(=O)O)C(=O)NCC(=O)O.c1ccncc1` (stereo not given), the GI50 in [1] is 3.23 µM (inactive); in assay [2] it was 3.51 µM (inactive); in assay [3], 0.885 µM (active); in [4], 0.141 µM (active); in assay [5], 0.0966 µM (active); in [6] it was 2.7 µM (inactive). The GI50 in assay [7] was 0.117 µM (active); in assay [8] it was 0.421 µM (active); in [9], 0.0421 µM (active); in assay [10] it was 0.592 µM (active); in assay [11] it was 1.42 µM (inactive); in [12] it was 0.182 µM (active). Further, the GI50 is 0.336 µM (active) in [13]; 0.437 µM (active) in [14]; 0.02 µM (active) in [15]; 0.902 µM (active) in [16]; 0.0471 µM (active) in assay [17]; 0.0266 µM (active) in [18]. Also, the GI50 in assay [19] was 0.182 µM (active); in [20], 0.0843 µM (active).
With `COc1nc(N=P(c2ccccc2)(c2ccccc2)c2ccccc2)cc(=O)[nH]1`, the GI50 in assay [1], in [2], in [3], in [4], in assay [5] and in assay [6] was > 100 µM (inactive) each time. For the same molecule, the GI50 in assay [7], in assay [8], in assay [9], in [10], in [11] and in assay [12] was > 100 µM (inactive) in each case. In addition, the GI50 in assay [13], in assay [14], in assay [15], in assay [16], in assay [17] and in [18] was > 100 µM (inactive) throughout. Besides, the GI50 in [19] and in assay [20] was > 100 µM (inactive) each time.
As to `O=C(O)c1cc(/N=N/c2ccc([N+](=O)[O-])cc2)ccc1O`, the GI50 is 32.3 µM (inactive) in assay [1]; 24.8 µM (inactive) in assay [2]; 40.6 µM (inactive) in assay [3]; 30.8 µM (inactive) in [4]; 34.6 µM (inactive) in assay [5]; 38.7 µM (inactive) in assay [6]. The GI50 was 37.3 µM (inactive) in assay [7]; 37.7 µM (inactive) in [8]; 21.1 µM (inactive) in assay [9]; 23.9 µM (inactive) in [10]; 40.2 µM (inactive) in assay [11]; 19 µM (inactive) in assay [12]. Further, the GI50 was 37.6 µM (inactive) in assay [13]; 19.5 µM (inactive) in [14]; 29.4 µM (inactive) in [15]; 21.6 µM (inactive) in [16]; 42.3 µM (inactive) in assay [17]; 29.6 µM (inactive) in [18]. For the same molecule, the GI50 is 16.6 µM (inactive) in [19] and 34.9 µM (inactive) in [20].
